PubChem BioAssay (NCI)
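Values below derive from 48-hour exposures of cells grown in 96-well plates, with endpoints linearly interpolated between the two concentrations bracketing the appropriate inhibition level. GI50 marks 50% less growth. At the TGI there is no net growth.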

What was measured:
Experiment in all cases: NCI anticancer screen, dose series, 48 h
MOLT-4 leukemia = system: MOLT-4 leukemia
NCI-H226 lung = system: NCI-H226 lung
NCI-H23 lung = system: NCI-H23 lung
NCI-H460 lung = system: NCI-H460 lung
NCI-H522 lung = system: NCI-H522 lung
NCI/ADR-RES ovarian = system: NCI/ADR-RES ovarian
OVCAR-3 ovarian = system: OVCAR-3 ovarian
OVCAR-4 ovarian = system: OVCAR-4 ovarian
OVCAR-5 ovarian = system: OVCAR-5 ovarian
OVCAR-8 ovarian = system: OVCAR-8 ovarian
PC-3 prostate = system: PC-3 prostate
RPMI-8226 leukemia = system: RPMI-8226 leukemia
SF-268 CNS = system: SF-268 CNS
SF-295 CNS = system: SF-295 CNS
SF-539 CNS = system: SF-539 CNS
SK-MEL-2 melanoma = system: SK-MEL-2 melanoma
SK-MEL-28 melanoma = system: SK-MEL-28 melanoma
SK-MEL-5 melanoma = system: SK-MEL-5 melanoma
SK-OV-3 ovarian = system: SK-OV-3 ovarian
SN12C renal = system: SN12C renal
SNB-19 CNS = system: SNB-19 CNS
SNB-75 CNS = system: SNB-75 CNS
SR leukemia = system: SR leukemia
SW-620 colon = system: SW-620 colon
TK-10 renal = system: TK-10 renal
U251 CNS = system: U251 CNS
UACC-257 melanoma = system: UACC-257 melanoma
UACC-62 melanoma = system: UACC-62 melanoma
UO-31 renal = system: UO-31 renal

Molecule `Cn1cc(-c2nc(N)nnc2-c2c[nH]c3ccccc23)c2cc(Br)cnc21` has a TGI (MOLT-4 leukemia) of 19200 nM, a GI50 (NCI-H226 lung) of 50.9 nM and a TGI (NCI-H226 lung) of 2700 nM. It also gave a GI50 (NCI-H23 lung) of 73.8 nM, a TGI (NCI-H23 lung) of 10400 nM and a GI50 (NCI-H460 lung) of 46.2 nM. For the same molecule, the TGI (NCI-H460 lung) was 1350 nM, the GI50 (NCI-H522 lung) was 12.5 nM and the TGI (NCI-H522 lung) was 79.7 nM. It also gave a GI50 (NCI/ADR-RES ovarian) of 92.4 nM, a TGI (NCI/ADR-RES ovarian) of 776 nM and a GI50 (OVCAR-3 ovarian) of 39 nM. It also gave a TGI (OVCAR-3 ovarian) of 692 nM, a GI50 (OVCAR-4 ovarian) of 2700 nM and a TGI (OVCAR-4 ovarian) of 36800 nM. For the same molecule, the GI50 (OVCAR-5 ovarian) was 72.9 nM, the TGI (OVCAR-5 ovarian) was 15500 nM and the GI50 (OVCAR-8 ovarian) was 63.4 nM. The TGI (OVCAR-8 ovarian) was 4700 nM, the GI50 (PC-3 prostate) was 56 nM and the TGI (PC-3 prostate) was 47900 nM. It also gave a GI50 (RPMI-8226 leukemia) of 70.8 nM, a TGI (RPMI-8226 leukemia) greater than 45500 nM and a GI50 (SF-268 CNS) of 340 nM. For the same molecule, the TGI (SF-268 CNS) was 25500 nM, the GI50 (SF-295 CNS) was 29.4 nM and the TGI (SF-295 CNS) was 1190 nM. It also gave a GI50 (SF-539 CNS) of 32.3 nM, a TGI (SF-539 CNS) of 175 nM and a GI50 (SK-MEL-2 melanoma) of 40.9 nM. For the same molecule, the TGI (SK-MEL-2 melanoma) was 14300 nM, the GI50 (SK-MEL-28 melanoma) was 364 nM and the TGI (SK-MEL-28 melanoma) was 19200 nM. It also gave a GI50 (SK-MEL-5 melanoma) of 30.1 nM, a TGI (SK-MEL-5 melanoma) of 1190 nM and a GI50 (SK-OV-3 ovarian) of 48.7 nM. It also gave a TGI (SK-OV-3 ovarian) of 21200 nM, a GI50 (SN12C renal) of 58.9 nM and a TGI (SN12C renal) of 14300 nM. It also gave a GI50 (SNB-19 CNS) of 63.2 nM, a TGI (SNB-19 CNS) of 10400 nM and a GI50 (SNB-75 CNS) of 30.2 nM. It also gave a TGI (SNB-75 CNS) of 18300 nM, a GI50 (SR leukemia) of 30.9 nM and a TGI (SR leukemia) greater than 100000 nM. The GI50 (SW-620 colon) was 37.6 nM, the TGI (SW-620 colon) was 13200 nM and the GI50 (TK-10 renal) was 5950 nM. The TGI (TK-10 renal) was 34200 nM, the GI50 (U251 CNS) was 40.2 nM and the TGI (U251 CNS) was 6710 nM. It also gave a GI50 (UACC-257 melanoma) of 42.1 nM, a TGI (UACC-257 melanoma) of 21800 nM and a GI50 (UACC-62 melanoma) of 29.4 nM. It also gave a TGI (UACC-62 melanoma) of 7680 nM, a GI50 (UO-31 renal) of 71.1 nM and a TGI (UO-31 renal) of 15200 nM.
